# Data published in patent US20080280920A1, “Plasminogen Activator Inhibitor-1 Inhibitors” (priority 2005, published 2008).
# Experiments:
# Type in all cases: cell-based, human
# T-47D = assay: NCI anticancer screen, T-47D; settings: Breast, 48 h; for GI50 / CC50: Homo sapiens, T47D; for CC50: read-out: LC50 (the source's name)
# CCRF-CEM = assay: NCI anticancer screen, CCRF-CEM; settings: Leukemia, 48 h
# RPMI-8226 = assay: NCI anticancer screen, RPMI-8226; settings: RPMI-8226, Leukemia, 48 h
# HOP-62 = assay: NCI anticancer screen, HOP-62; settings: HOP-62, Non-Small Cell Lung, 48 h
# SNB-19 = assay: NCI anticancer screen, SNB-19; settings: SNB-19, CNS, 48 h; for GI50 / CC50: Homo sapiens; for CC50: read-out: LC50 (the source's name)
# [1] = Homo sapiens, read-out: LC50 (the source's name)
compound,measurement,setting,value
"CC(C)(C)OC(=O)Nc1ccc(O)c(C(=O)NCCOC(=O)NCCNC(=O)c2cc(OCc3ccccc3)ccc2OCc2ccccc2)c1 [Compound Q012052, 2-[5-(BOC-amino)-2-hydroxybenzoylamino]ethyl 2-[2,5-bis-(benzyl-oxy)benzoylamino]ethylcarbamate]",GI50,T-47D,5.05 µM
same,GI50,CCRF-CEM; Homo sapiens,> 100 µM
same,GI50,RPMI-8226; Homo sapiens,7.58 µM
same,GI50,HOP-62; Homo sapiens,> 100 µM
same,GI50,SNB-19,> 100 µM
"COc1cc(CNCC2CCN(C(=O)OC(C)(C)C)CC2)cc(CN2CCN(c3ccccn3)CC2)c1O [Compound Q012132, 2-Methoxy-4-({[(N-t-butyloxycarbonylpiperidin-4-yl)methyl]amino}methyl)-6-[(4-pyridin-2-ylpiperazin-1-yl)methyl]phenol]",TGI,T-47D,44.4 µM
same,GI50,T-47D,16.2 µM
same,CC50,T-47D,> 100 µM
same,GI50,SNB-19,41.8 µM
same,CC50,SNB-19,> 100 µM
same,TGI,SNB-19,>100 µM
CCOC(=O)c1ccc(CNCc2cc(CN3CCN(c4ccccn4)CC3)c(O)c(OC)c2)cc1 [Compound Q012135T],TGI,T-47D,49.2 µM
same,GI50,T-47D,14.7 µM
same,CC50,T-47D,> 100 µM
same,GI50,CCRF-CEM; Homo sapiens,14.1 µM
same,CC50,CCRF-CEM; [1],14.1 µM
same,TGI,CCRF-CEM,48.4 µM
same,GI50,RPMI-8226; Homo sapiens,7.14 µM
same,CC50,RPMI-8226; [1],7.14 µM
same,TGI,RPMI-8226,24.5 µM
same,TGI,HOP-62,43.9 µM
same,GI50,HOP-62; Homo sapiens,20.6 µM
same,LC50,HOP-62; Homo sapiens,93.8 µM
same,GI50,SNB-19,33.1 µM
same,CC50,SNB-19,> 100 µM
same,TGI,SNB-19,>100 µM
COc1cc(CNc2ccc(C(=O)OC(C)(C)C)cc2)cc(CN2CCN(c3ccccn3)CC2)c1O [Compound Q012145T],GI50,T-47D,13.1 µM
same,GI50,SNB-19,> 100 µM
CCOC(=O)[C@H](Cc1ccccc1)NCc1cc(CN2CCN(c3ccccn3)CC2)c(O)c(OC)c1 [Compound Q012147T],GI50,T-47D,33.5 µM
same,GI50,SNB-19,> 100 µM
